Experimental data from patent US6797807B1, “Compounds and methods for cancer therapy” (Adherex Technologies, Inc., priority 1997, dated 2004).

Legend:
[1] = system: Madin Darby canine kidney (MDCK) cells; test: Electrical resistance across MDCK cell monolayers; assay type: cell-based; conditions: 24 hours; for mean electrical resistance across MDCK cell monolayers: 0.5 mg/ml peptide, relative to the control (medium alone), FIG. 9; for formation of tight junctions in epithelial cells: conclusion from MDCK electrical resistance, 0.5 mg/ml
Protocol: Yet another assay evaluates the effect of an occludin modulating agent on the electrical resistance across a monolayer of cells. For example, Madin Darby canine kidney (MDCK) cells can be exposed to the modulating agent dissolved in medium (e.g., at a final concentration of 0.5 mg/ml for a period of 24 hours). The effect on electrical resistance can be measured using standard techniques. This assay evaluates the effect of a modulating agent on tight junction formation in epithelial cells. In general, the presence of 500 μg/mL modulating agent should result in a statistically significant increase or decrease in electrical resistance after 24 hours.
Madin Darby canine kidney (MDCK) cells were plated in Millicells (Millipore, Bedford, Mass.), at a density of 300,000 cells per Millicell, and cultured in Dulbecco's Modified Eagle Medium (DMEM; Sigma, St. Louis, Mo.) containing 5% fetal calf serum (Sigma, St. Louis, Mo.). Monolayers were exposed to the modulating agent dissolved in medium at a final concentration of 0.5 mg/ml for a period of 24 hours. The electrical resistance was measured using the EVOM device (World Precision Instruments, Sarasota, Fla.). At the time of measurement, fresh medium, with or without the modulating agent, may be added to the Millicells.

[2] = system: Human aortic endothelial cells (HAEC); test: Endothelial cell adhesion assay: occludin and VE-cadherin immunolocalization in HAEC monolayers; assay type: cell-based; conditions: 1 hour
Description: The effect of a modulating agent on endothelial cell adhesion may generally be evaluated using immunolocalization techniques. Human aortic endothelial cells (HAEC) may be cultured on fibronectin-coated coverslips (fibronectin may be obtained from Sigma, St. Louis, Mo.) according to the procedures of Jaffe et al., J. Clin. Invest. 52:2745-2756, 1973. Briefly, human endothelial cells may be maintained in EGM (endothelial cell growth medium; Clonetics, San Diego, Calif.) and used for experiments at passage 4. Confluent cultures of HAEC may be exposed to either a candidate modulating agent (final concentration 100 μg/ml EGM), or EGM alone for 1 hour. The cells are then be fixed for 30 minutes at 4° C. in 95% ethanol, followed by fixation in acetone for 1 minute at 4° C. (Furuse et al., J. Cell Biol. 123:1777-1788, 1993). After fixation, the cells may be probed with either mouse anti-VE-cadherin antibodies (Hemeris, Sassenage, France; diluted 1:250 in 0.1% dried skim milk powder dissolved in PBS), or rabbit anti-occludin antibodies (Zymed, South San Francisco, Calif.; diluted 1:300 in 0.1% dried skim milk powder dissolved in PBS) for 1 hour at 37° C. The cells may then be washed with 0.1% dried skim milk powder dissolved in PBS (three washes, 5 minutes/wash), and probed with secondary antibodies (donkey anti-mouse Cy3, or donkey anti-rabbit Cy5 diluted 1:250 in 0.1% dried skim milk powder dissolved in PBS; Jackson Immunoresearch Laboratories Inc., Westgrove, Pa.) for 1 hour at 37° C. The cells may then be washed again with in 0.1% dried skim milk powder dissolved in PBS and mounted in a solution composed of 50% glycerol and 50% PBS to which phenylenediamine (Sigma, St. Louis, Mo.) has been added to a final concentration of 1 mg/ml. The sample may then be analyzed using a Bio-Rad MRC 1000 confocal microscope with Laser Sharp software version 2.1T (Bio-Rad, Hercules, Calif.). In general, 0.1 mg/ml of modulating agent results in the appearance of intercellular gaps within the monolayer cultures and a decrease of at least 50% in the surface expression of occludin and VE-cadherin, as compared to monolayer cultures that were not exposed to the modulating agent.
Human aortic endothelial cells (HAEC) were cultured on fibronectin (Sigma, St. Louis, Mo.) according to the procedures of Jaffe et al., J. Clin. Invest. 52:2745-2756, 1973. Cells were maintained in EGM (endothelial cell growth medium; Clonetics, San Diego, Calif.) and used for experiments at passage 4.
HAEC were cultured on fibronectin-coated coverslips. Confluent cultures of HAEC were exposed to linear peptides (final concentration 100 μg/ml EGM), or EGM alone for 1 hour. […] The samples were analyzed using a Bio-Rad MRC 1000 confocal microscope with Laser Sharp software version 2.1T (Bio-Rad, Hercules, Calif.). […]

Adult rats = test: Miles assay for vascular permeability (Evans blue); assay type: in vivo; conditions: rat
Protocol: The ability of an agent to modulate cell adhesion may generally be evaluated in vivo by assessing the effect on vascular permeability utilizing the Miles assay (McClure et al., J. Pharmacological & Toxicological Methods 32:49-52, 1994). Briefly, a candidate modulating agent may be dissolved in phosphate buffered saline (PBS) at a concentration of 100 μg/ml. Adult rats may be given 100 μl subdermal injections of each peptide solution into their shaved backs, followed 15 minutes later by a single 250 μl injection of 1% Evans blue dissolved in PBS into their tail veins. The subdermal injection sites may be visually monitored for the appearance of blue dye. Once the dye appears (about 15 minutes after injection), each subdermal injection site may be excised, weighed, and placed in 1 ml dimethylformamide for 24 hours to extract the dye. The optical density of the dye extracts may then be determined at 620 nm. In general, the injection of 0.1 ml of modulating agent (at a concentration of 0.1 mg/ml) into the backs of rats causes an increase of dye accumulation at the injection sites of at least 50%, as compared to dye accumulation at sites into which PBS has been injected.
The ability of cyclic and linear peptides to increase vascular permeability was assessed utilizing the Miles assay (McClure et al., J. Pharmacological & Toxicological Meth. 32:49-521994). The peptides were dissolved in phosphate buffered saline (PBS) at a concentration of 100 μg/ml. Adult rats were given 100 μl subdermal injections of each peptide solution into their shaved backs, followed 15 minutes later by a single 250 μl injection of 1% Evans blue dissolved in PBS into their tail veins. The subdermal injection sites were visually monitored for the appearance of blue dye. Once the dye appeared (15 minutes after injection), each subdermal injection site was excised, weighed, and placed in 1 ml dimethylformamide for 24 hours to extract the dye. The optical density of the dye extracts was determined at 620 nm. […]

[3] = 100 μg/ml peptide, compared to untreated cells

In the case of H-QYLYHYCVVD-NH2 [Peptide 2], the “mean electrical resistance across MDCK cell monolayers” value [1] is reported as “reduce the electrical resistance”.

In the case of H-QYLYHYCVVD-OH [Peptide 3], the “adhesion between endothelial cells (retraction of cells from one another)” value ([2]; 100 μg/ml peptide in EGM, vs untreated, FIG. 4B) is reported as “adhesion is decreased”, the “formation of cobblestone-like monolayers” value ([2]; 100 μg/ml peptide) is reported as “do not form cobblestone-like monolayers” and the “surface expression of VE-cadherin” value [2, 3] is reported as “greatly reduced”. For the same substance, the “surface expression of occludin” value [2, 3] was “greatly reduced”, the “optical densities of dimethylformamide dye extracts from excised injection sites” value (Adult rats; 100 μg/ml peptide subdermal, OD at 620 nm, compared with PBS and the N-acetyl/C-amide peptides, FIG. 6, FIG. 8) was “more dye was extracted” and the “accumulation of Evans blue at the injection sites (visual)” value (Adult rats; 100 μl subdermal injection of 100 μg/ml peptide in PBS, Evans blue i.v. 15 min later, compared with PBS, acetyl-QYLYHYCVVD-NH2 and H-QYLYHYCVVD-NH2 sites, FIG. 5) was “more blue dye has accumulated”. For the same substance, the “mean electrical resistance across MDCK cell monolayers” value [1] was “increased the electrical resistance”, the “formation of tight junctions in epithelial cells” value (“formation of tight junctions” for short) [1] was “stimulate the formation of tight junctions in epithelial cells” and the “formation of tight junctions” value ([1]; listed as H-QYLYHYCVVD-COOH) was “stimulating the formation of tight junctions in epithelial cells”.

In the case of “acetyl-CLYHYC-NH2 (Ac-CLYHYC-NH2; also: cyclic, kind not given here) [Peptide 4]”, the “mean electrical resistance across MDCK cell monolayers” value [1] is reported as “increased the electrical resistance”, the “formation of tight junctions” value [1] is reported as “stimulate the formation of tight junctions in epithelial cells” and the “formation of tight junctions” value ([1]; listed as N-Ac-CLYHYC-NH2) is reported as “stimulating the formation of tight junctions in epithelial cells”.
